Experimental data: ChEMBL document CHEMBL5500339, “4-Hydroxy-2-pyridone derivatives with antitumor activity produced by mangrove endophytic fungus Talaromyces sp. CY-3” (Eur J Med Chem, 2024)
Calls of active or inactive are those of the source. The calls are words filed in the database; no cut-off is given here.

How the values were obtained:
[1] = system: CT26; test: Cytotoxicity against mouse CT26 cells assessed as reduction in cell viability incubated for 48 hrs by MTT assay; type: functional, cell-based; details: CT26, 48 h
[2] = Cytotoxicity against mouse Lewis lung carcinoma cell line assessed as reduction in cell viability incubated for 48 hrs by MTT assay; type: functional, cell-based
[3] = system: NCI-H1703; test: Inhibition of colony formation in human NCI-H1703 cells at 5 uM incubated for 7 days by crystal violet staining analysis; type: functional, cell-based; details: time 7.0 day
[4] = system: NCI-H1703; test: Antiproliferative activity against human NCI-H1703 cells assessed as inhibition of cell growth at 10 uM incubated for 24 hrs by MTT assay; type: functional, cell-based
[5] = system: NCI-H1703; test: Antiproliferative activity against human NCI-H1703 cells assessed as inhibition of cell growth at 20 uM incubated for 24 hrs by MTT assay; type: functional, cell-based
[6] = system: A549; test: Induction of cell cycle arrest in human A549 cells assessed as accumulation of cells at G1/G0 phase at 10 uM incubated for 24 hrs by flow cytometric analysis (reference value: 51.49 %); type: functional
[7] = system: A549; test: Induction of cell cycle arrest in human A549 cells assessed as accumulation of cells at S phase at 10 uM incubated for 24 hrs by flow cytometric analysis (reference value: 31.31 %); type: functional
[8] = system: A549; test: Induction of cell cycle arrest in human A549 cells assessed as accumulation of cells at G2/M phase at 10 uM incubated for 24 hrs by flow cytometric analysis (reference value: 17.2 %); type: functional
[9] = system: NCI-H1703; test: Induction of cell cycle arrest in human NCI-H1703 cells assessed as accumulation of cells at S phase at 5 uM incubated for 24 hrs by flow cytometric analysis (reference value: 28.06 %); type: functional
[10] = system: NCI-H1703; test: Induction of cell cycle arrest in human NCI-H1703 cells assessed as accumulation of cells at G2/M phase at 10 uM incubated for 24 hrs by flow cytometric analysis (reference value: 29.88 %); type: functional
[11] = system: A549; test: Induction of cell cycle arrest in human A549 cells assessed as downregulation of CDK4 protein expression incubated for 24 hrs by Western blotting analysis; type: functional, cell-based
[12] = system: NCI-H1703; test: Induction of cell cycle arrest in human NCI-H1703 cells assessed as downregulation of CDK6 protein expression incubated for 24 hrs by Western blotting analysis; type: functional, cell-based
[13] = system: A549; test: Induction of cell cycle arrest in human A549 cells assessed as downregulation of Rb phosphorylation at Ser807/811 residue at 20 uM incubated for 24 hrs by Western blotting analysis; type: functional, cell-based
[14] = system: A549; test: Induction of cell cycle arrest in human A549 cells assessed as downregulation of total Rb protein level at 10 uM incubated for 24 hrs by Western blotting analysis; type: functional, cell-based

SMILES: C/C=C/[C@@H]1[C@H]2C[C@@H](C)CC[C@@H]2C(C)=C[C@H]1C(=O)c1c(O)c(-c2ccc(O)cc2)c[nH]c1=O [ILICICOLIN H]
- IC50 [1]: 19.5 µM
- IC50 [2]: 5.78 µM
- inhibition [3]: Active
- Activity [4]: Active
- Activity [5]: Active
- Activity [6]: 64.26%
- Activity [7]: 10.84%
- Activity [8]: 24%
- Activity [9]: 23.26%
- Activity [10]: 19.48%
- Activity [11]: Dose-Dependent Effect
- Activity [12]: Dose-Dependent Effect
- Activity [13]: Active
- Activity [14]: inactive
